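Following 48 hours of exposure in 96-well plates, responses at five concentrations were used to interpolate endpoints linearly. The concentration for 50% growth inhibition is given as GI50.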 The source made the active and inactive calls. Rule as the data show it: active = GI50 up to about 1.1 µM and inactive = higher. Starred links: 1 amine or outer side, 2 acyl side, 3 side chain; linkers in the order of their positions; H or OH if unused. Non-standard residues stand in square brackets, D forms with d. Residues, ends and D or L forms follow the SMILES beside them. *: point of attachment. X34 = CC(=O)N(C)SCC(N[*:1])C(=O)[*:2]; Cbz = O=C(OCc1ccccc1)*; Bn = c1ccc(C*)cc1; For = O=C*
How the values were obtained:
Experiment in all cases: NCI-60 cell line screen, 48 h
[1] = system: CCRF-CEM
[2] = system: HCC 2998
[3] = system: COLO 205
[4] = system: OVCAR-3
[5] = system: UACC-257
[6] = system: HT-29
[7] = system: SK-MEL-28
[8] = system: HCT-15
[9] = system: HOP-62
[10] = system: SK-OV-3
[11] = system: CAKI-1
[12] = system: SNB-19
[13] = system: HOP-92
[14] = system: OVCAR-8
[15] = system: SN12C
[16] = system: NCI-H23
[17] = system: MDA-N
[18] = system: RPMI-8226
[19] = system: NCI-H226

SMILES	GI50 [1]	GI50 [2]	GI50 [3]	GI50 [4]	GI50 [5]	GI50 [6]	GI50 [7]	GI50 [8] [µM]	GI50 [9]	GI50 [10]	GI50 [11]	GI50 [12]	GI50 [13]	GI50 [14]	GI50 [15]	GI50 [16]	GI50 [17]	GI50 [18]	GI50 [19]
NP1(Oc2ccc(F)cc2)=NP(N)(Oc2ccc(F)cc2)=NP(Oc2ccc(F)cc2)(Oc2ccc(F)cc2)=N1 (stereo unspecified)	6.21 µM (inactive)	3.19 µM (inactive)	6.64 µM (inactive)	4.68 µM (inactive)	12.3 µM (inactive)	5.43 µM (inactive)	12.4 µM (inactive)	3.81	9.68 µM (inactive)	14.2 µM (inactive)	10.2 µM (inactive)	10.9 µM (inactive)	3.78 µM (inactive)	3.5 µM (inactive)	6.18 µM (inactive)	11.2 µM (inactive)	6.47 µM (inactive)	4.59 µM (inactive)	–
N#Cc1c(-c2ccc(Cl)cc2)c2c([nH]c1=O)-c1cc([N+](=O)[O-])ccc1CCC2	25.2 µM (inactive)	16.9 µM (inactive)	19.1 µM (inactive)	12.8 µM (inactive)	21.1 µM (inactive)	25.4 µM (inactive)	21.2 µM (inactive)	14.3	20.3 µM (inactive)	28.7 µM (inactive)	19.9 µM (inactive)	20.5 µM (inactive)	14.4 µM (inactive)	20.5 µM (inactive)	17.2 µM (inactive)	15.2 µM (inactive)	26.7 µM (inactive)	86.7 µM (inactive)	17.1 µM (inactive)
O=c1[nH]c2nc3ccccc3c(=O)n2/c1=C/c1ccc(O)cc1	20.8 µM (inactive)	22.2 µM (inactive)	43.9 µM (inactive)	27 µM (inactive)	56.8 µM (inactive)	24 µM (inactive)	28.3 µM (inactive)	30.9	64 µM (inactive)	> 100 µM (inactive)	43.3 µM (inactive)	21 µM (inactive)	49.5 µM (inactive)	22 µM (inactive)	30.6 µM (inactive)	49 µM (inactive)	32.3 µM (inactive)	16.9 µM (inactive)	38.7 µM (inactive)
COc1ccc(COCC[C@H](C)OC2OC(CO[Si](C)(C)C(C)(C)C)C(O)C(O)C2O)cc1 (stereo partly specified)	> 100 µM (inactive)	> 100 µM (inactive)	> 100 µM (inactive)	> 100 µM (inactive)	> 100 µM (inactive)	> 100 µM (inactive)	> 100 µM (inactive)	> 100	> 100 µM (inactive)	> 100 µM (inactive)	> 100 µM (inactive)	> 100 µM (inactive)	> 100 µM (inactive)	> 100 µM (inactive)	> 100 µM (inactive)	> 100 µM (inactive)	> 100 µM (inactive)	> 100 µM (inactive)	> 100 µM (inactive)
COC(=O)CC(CNC(=O)OCc1ccccc1)OCc1ccc(OC)cc1 (stereo unspecified)	> 100 µM (inactive)	> 100 µM (inactive)	> 100 µM (inactive)	> 100 µM (inactive)	> 100 µM (inactive)	–	> 100 µM (inactive)	> 100	–	> 100 µM (inactive)	> 100 µM (inactive)	> 100 µM (inactive)	> 100 µM (inactive)	> 100 µM (inactive)	> 100 µM (inactive)	67.5 µM (inactive)	> 100 µM (inactive)	> 100 µM (inactive)	66.2 µM (inactive)
COC(=O)c1sc2c(c1C(=O)OC)/C(=N/c1ccc(OC)cc1)S/C2=N\c1ccc(OC)cc1	0.104 µM (active)	1.69 µM (inactive)	0.7 µM (active)	0.611 µM (active)	1.32 µM (inactive)	0.522 µM (active)	1.37 µM (inactive)	0.452	0.789 µM (active)	1.69 µM (inactive)	2.05 µM (inactive)	1.52 µM (inactive)	1.51 µM (inactive)	0.944 µM (active)	0.644 µM (active)	1.57 µM (inactive)	1.15 µM (inactive)	0.275 µM (active)	1.74 µM (inactive)
CC1=NN(c2nc(N)nc(/C(C#N)=C\c3cccc([N+](=O)[O-])c3)n2)C(C)(C)C1	10.8 µM (inactive)	12.2 µM (inactive)	14.9 µM (inactive)	6.76 µM (inactive)	20.7 µM (inactive)	11.7 µM (inactive)	19.1 µM (inactive)	13.2	5.13 µM (inactive)	11.9 µM (inactive)	12.4 µM (inactive)	10.8 µM (inactive)	> 24.4 µM (inactive)	7.29 µM (inactive)	25.2 µM (inactive)	10.1 µM (inactive)	13.2 µM (inactive)	5.65 µM (inactive)	–
COC(=O)c1cc2ccc(OC(C)=O)c(OC(C)=O)c2cn1	2.29 µM (inactive)	20.8 µM (inactive)	18.7 µM (inactive)	13 µM (inactive)	14.4 µM (inactive)	23.9 µM (inactive)	19 µM (inactive)	20.4	25.5 µM (inactive)	19.4 µM (inactive)	20.8 µM (inactive)	> 10 µM (inactive)	17.1 µM (inactive)	7.64 µM (inactive)	3.11 µM (inactive)	18 µM (inactive)	1.5 µM (inactive)	2.16 µM (inactive)	22.9 µM (inactive)
CC(C)C(N)(C(=O)O)c1ccccc1 (stereo unspecified)	> 100 µM (inactive)	> 100 µM (inactive)	> 100 µM (inactive)	> 100 µM (inactive)	> 100 µM (inactive)	> 100 µM (inactive)	> 100 µM (inactive)	> 100	> 100 µM (inactive)	> 100 µM (inactive)	> 100 µM (inactive)	> 100 µM (inactive)	> 100 µM (inactive)	> 100 µM (inactive)	> 100 µM (inactive)	> 100 µM (inactive)	> 100 µM (inactive)	> 100 µM (inactive)	> 100 µM (inactive)
Cc1ccc2c(n1)C(=O)c1ccccc1C2=O	37.7 µM (inactive)	28.8 µM (inactive)	16.9 µM (inactive)	3.53 µM (inactive)	19.1 µM (inactive)	23.5 µM (inactive)	51.5 µM (inactive)	25.8	38 µM (inactive)	77.4 µM (inactive)	39.2 µM (inactive)	26.2 µM (inactive)	51.6 µM (inactive)	26.7 µM (inactive)	26.4 µM (inactive)	14.7 µM (inactive)	> 45.6 µM (inactive)	32.6 µM (inactive)	38 µM (inactive)
O=CN(CCN1CCCC1)C1CCc2cc(Cl)c(Cl)cc2C1 (stereo unspecified)	22.5 µM (inactive)	17.5 µM (inactive)	20.4 µM (inactive)	12.3 µM (inactive)	15.2 µM (inactive)	5.75 µM (inactive)	–	15.8	11.3 µM (inactive)	0.714 µM (active)	18.9 µM (inactive)	0.851 µM (active)	33.2 µM (inactive)	20.6 µM (inactive)	11 µM (inactive)	17.4 µM (inactive)	10 µM (inactive)	20.6 µM (inactive)	–
N#C/C(C(=O)Nc1ccccc1)=C(/N)N1CCOCC1	> 100 µM (inactive)	> 100 µM (inactive)	> 100 µM (inactive)	> 100 µM (inactive)	> 100 µM (inactive)	–	> 100 µM (inactive)	> 100	> 100 µM (inactive)	> 100 µM (inactive)	> 100 µM (inactive)	> 100 µM (inactive)	> 100 µM (inactive)	> 100 µM (inactive)	> 100 µM (inactive)	> 100 µM (inactive)	> 100 µM (inactive)	> 100 µM (inactive)	> 100 µM (inactive)
CCOC(=O)c1c(N2CCOCC2)[nH]c(=O)c(C(c2ccc(OC)cc2)c2c(O)c(C(=O)OCC)c(N3CCOCC3)[nH]c2=O)c1O	> 100 µM (inactive)	> 100 µM (inactive)	> 100 µM (inactive)	> 100 µM (inactive)	> 100 µM (inactive)	> 100 µM (inactive)	> 100 µM (inactive)	> 100	> 100 µM (inactive)	> 100 µM (inactive)	> 100 µM (inactive)	> 100 µM (inactive)	> 100 µM (inactive)	> 100 µM (inactive)	> 100 µM (inactive)	> 100 µM (inactive)	> 100 µM (inactive)	> 100 µM (inactive)	> 100 µM (inactive)
Oc1[nH]c(Nc2ccc(Cl)c(C(F)(F)F)c2)nc2ncnc1-2	21 µM (inactive)	24.7 µM (inactive)	27.2 µM (inactive)	36.6 µM (inactive)	59.2 µM (inactive)	33 µM (inactive)	–	> 100	> 100 µM (inactive)	> 100 µM (inactive)	> 100 µM (inactive)	45.1 µM (inactive)	58.5 µM (inactive)	31.8 µM (inactive)	32.5 µM (inactive)	73.8 µM (inactive)	25.6 µM (inactive)	> 100 µM (inactive)	> 100 µM (inactive)
CC(=O)N(C)SCC(NC(=O)C(Cc1ccccc1)NC(=O)OCc1ccccc1)C(=O)NC(Cc1ccccc1)C(=O)NC(Cc1cn(C=O)c2ccccc12)C(=O)NC(CCCCNC(=O)OCc1ccccc1)C(=O)NC(C(=O)NC(CSN(C)C(C)=O)C(=O)NC(C(N)=O)C(C)OCc1ccccc1)C(C)OCc1ccccc1 (stereo unspecified) (Cbz-F[X34]FW(For)K(Cbz)T(Bn)[X34]T(Bn)-NH2; configuration not given here)	> 100 µM (inactive)	> 100 µM (inactive)	> 100 µM (inactive)	> 100 µM (inactive)	> 100 µM (inactive)	> 100 µM (inactive)	> 100 µM (inactive)	> 100	82.8 µM (inactive)	33.2 µM (inactive)	–	18.7 µM (inactive)	19.7 µM (inactive)	26.1 µM (inactive)	> 100 µM (inactive)	32 µM (inactive)	> 100 µM (inactive)	> 100 µM (inactive)	> 100 µM (inactive)
